For this assay, the target named is carbonyl BSA (Bos taurus, UniProt P02769). Briefly: Carbonyl protein reduction test with carbonyl BSA model (OxyBlot dot blot). It counts as biochemical, bovine. Particulars: for action of reducing carbonyl protein (carbonyl BSA): conclusion in words. How it is done:
A carbonyl protein, obtained by carbonylating bovine serum albumin (termed “BSA”, hereinafter), was prepared as a carbonyl protein model (termed “carbonyl BSA”, hereinafter) and used in this experiment.
In phosphate buffered saline (termed “PBS (-)”, hereinafter) containing 100 μM of sodium hypochlorite as a carbonyl initiator was dissolved BSA to give a final concentration of 40 mg/mL, followed by keeping the resulting solution at 37° C. overnight to form carbonyl BSA, as a carbonyl protein model, used as a substance to cause skin yellowness, and removing the remaining sodium hypochlorite with “AMICON ULTRA 10K”, a product name of ultrafiltration membrane, commercialized by Merck Millipore Corporation, Tokyo, Japan, to obtain a carbonyl BSA. In this experiment, the carbonyl BSA was used as a carbonyl protein model.
Based on Western blot analysis, the concentration of carbonyl BSA was assayed with dot blot method using a kit, “OxyBlot™ Protein Oxidation Detection Kit”, a product name of a kit for analyzing the oxidation level of protein, commercialized by Merck Millipore Corporation, Tokyo, Japan. The resulting measured values (emission intensity) were analyzed with “Image J”, an image processing software explored by National Institutes of Health (NIH), Maryland, USA. While, a PBS (-) solution (called “control”, hereinafter) containing carbonyl BSA, obtained similarly as in the above except for not using any of the test samples, was similarly measured as in the above, followed by determining the ratios of the measured values for those with the test samples against that of control. The results are in Table 1 and FIG. 1. […] The numerals in the table respectively show the ratios of carbonyl BSA when the test samples were respectively used alone against the measured value of carbonyl BSA, regarded as 1, for Control with no addition of any of the test samples.
The results are respectively in Tables 2 and 3 and FIGS. 2 and 3. The numerals with no symbol “%” in each table show ratios of carbonyl BSA obtained in such a manner of calculating the amount of carbonyl BSA for the system with either or both of the test samples that were respectively used alone or used in combination while regarding as one the amount of carbonyl BSA in each control system with no addition of any of the compositions containing glycosyl hesperetin or glycosyl naringenin.
Except for using any one of mannose, N-acetylglucosamine, “MALTOSE HHH” as a product name of maltose, raffinose, maltotetraose, and “TORNARE®” as a product name of glycosyl trehalose used as a cosmetic base material, which are shown in Table 4 below, in place of the composition containing glycosyl naringenin and the ascorbic acid 2-glucoside used in the above (4), and preparing it into a solution containing 0.1 w/v % of any of the above saccharide for use as a test solution for carbonyl protein reduction test, it was examined the carbonyl protein reduction action of the combination use the composition containing glycosyl hesperetin and any one of the above-identified saccharides similarly as in the above (4).
This experiment was conducted with organic acids and amino acids, which were focused on as compounds to be used with the composition containing glycosyl hesperetin.

[1] abbreviates: test—3, composition containing glycosyl hesperetin (0.1 w/v %) in combination with the labelled organic acid or amino acid (0.1 w/v % as headed).
Setting [2] is: test—3, sole use of organic acid or amino acid (0.1 w/v % as headed), Control = 1.
Where [3] appears, read: sole use test, test sample 0.1 w/v %, carbonyl BSA:test sample 1:1 by mass, 37° C., 16 hours, Control (no addition) = 1.
[4] abbreviates: test—2 (Table 5), single use 0.1 w/v %, Control = 1.
The mark [5] stands for this setting: test—2, combination use of composition containing glycosyl hesperetin (0.1 w/v %) and the labelled saccharide (0.1 w/v %).

Sequence of carbonyl BSA (P02769 25-607): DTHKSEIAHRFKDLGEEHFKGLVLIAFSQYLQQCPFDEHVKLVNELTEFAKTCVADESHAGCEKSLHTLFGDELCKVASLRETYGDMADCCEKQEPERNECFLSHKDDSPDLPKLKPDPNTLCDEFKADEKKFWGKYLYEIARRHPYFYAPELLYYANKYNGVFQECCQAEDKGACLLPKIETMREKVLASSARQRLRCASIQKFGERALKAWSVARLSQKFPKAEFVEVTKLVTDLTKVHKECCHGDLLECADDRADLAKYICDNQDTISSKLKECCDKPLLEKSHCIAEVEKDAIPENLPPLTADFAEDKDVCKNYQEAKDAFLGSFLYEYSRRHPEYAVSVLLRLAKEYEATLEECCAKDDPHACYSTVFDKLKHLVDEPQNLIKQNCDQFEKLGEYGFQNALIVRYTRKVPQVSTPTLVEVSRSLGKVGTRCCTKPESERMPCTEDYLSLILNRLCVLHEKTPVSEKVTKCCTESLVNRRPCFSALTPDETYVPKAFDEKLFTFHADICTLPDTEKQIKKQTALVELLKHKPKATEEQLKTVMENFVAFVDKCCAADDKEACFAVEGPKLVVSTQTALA

As for `N[C@@H](CCC(=O)[O-])C(=O)[O-].[Na+].[Na+]` [L, sodium glutamate], the “Ratio of carbonyl BSA” value is, setting by setting: under setting [1], 0.28; under setting [2], 0.77.
On to `CC(O)C(=O)O` (stereo not drawn) [A, lactic acid], for which the “Ratio of carbonyl BSA” value is, setting by setting: under setting [1], 0.35; under setting [2], 0.89.
Turning to `NC(=O)c1cccnc1` [Niacinamide, niacinamide, reference compound], the “action of reducing carbonyl protein (carbonyl BSA)” value is “no action of reducing carbonyl protein”. Under setting [3], the “Ratio of carbonyl BSA” value is 1.05.
Turning to `C/C=C/C=C/C(=O)O` [I, sorbic acid], the “Ratio of carbonyl BSA” value by setting is: under setting [1], 0.26; under setting [2], 1.04.
Regarding `N[C@@H](CCC(=O)N[C@@H](CS)C(=O)NCC(=O)O)C(=O)O` [Glutathione (reduced form), reduced glutathione, reference compound], the “action of reducing carbonyl protein (carbonyl BSA)” value is on record as “no action of reducing carbonyl protein”. Also, the “Ratio of carbonyl BSA” value under setting [3] is 1.19.
Regarding `O=C1O[C@H]([C@@H](O)CO)C(O)=C1O[C@H]1O[C@H](CO)[C@@H](O)[C@H](O)[C@H]1O` [L-Ascorbic acid 2-glucoside, L-ascorbic acid 2-glucoside, reference compound], the “Ratio of carbonyl BSA” value by setting is: under setting [3], 0.73; (test—1 (Tables 2, 3), single use, with no addition of the other ingredient, test sample 0.1 w/v %, Control = 1) 0.70.
For the compound `O=C(O)c1ccccc1` [J, benzoic acid], the “Ratio of carbonyl BSA” value is, setting by setting: under setting [1], 0.44; under setting [2], 0.95.
Take `CC(=O)N[C@H]1C(O)O[C@H](CO)[C@@H](O)[C@@H]1O` (stereo partly drawn) [N-Acetyl glucosamine]: the “Ratio of carbonyl BSA” value under setting [4] amounted to 0.48 and the “Ratio of carbonyl BSA” value under setting [5] was 0.79.
With `CC(=O)O` [H, acetic acid], the “Ratio of carbonyl BSA” value reads like this: under setting [1], 0.25; under setting [2], 1.08.
For the compound `OC[C@H]1O[C@H](O[C@H]2[C@H](O)[C@@H](O)[C@@H](O[C@H]3[C@H](O)[C@@H](O)[C@@H](O[C@H]4[C@H](O)[C@@H](O)C(O)O[C@@H]4CO)O[C@@H]3CO)O[C@@H]2CO)[C@H](O)[C@@H](O)[C@@H]1O` (stereo partly drawn) [Maltotetraose, maltotetraose], the “Ratio of carbonyl BSA” value under setting [4] was 0.71 and the “Ratio of carbonyl BSA” value under setting [5] worked out at 0.13.
On to `COc1cc(/C=C/C(=O)O)ccc1O` [E, ferulic acid], for which the “Ratio of carbonyl BSA” value by setting is: under setting [1], 0.35; under setting [2], 0.82.
For the compound `OC[C@H]1O[C@H](OC[C@H]2O[C@H](O[C@]3(CO)O[C@H](CO)[C@@H](O)[C@@H]3O)[C@H](O)[C@@H](O)[C@@H]2O)[C@H](O)[C@@H](O)[C@H]1O` [Raffinose, raffinose], the “Ratio of carbonyl BSA” value was 0.23 under setting [4] and 0.54 under setting [5].
In the case of `O=C[C@H](O)[C@H]1OC(=O)[C@@H](O)[C@H]1O` [G, glucuronolactone], the “Ratio of carbonyl BSA” value reads like this: under setting [1], 0.49; under setting [2], 1.07.
Consider `NCC(=O)O` [K, glycine], for which the “Ratio of carbonyl BSA” value runs as follows: under setting [1], 0.32; under setting [2], 0.71.
Consider `OC[C@H]1O[C@H](O[C@H]2[C@H](O)[C@@H](O)C(O)O[C@@H]2CO)[C@H](O)[C@@H](O)[C@@H]1O` (mixture of isomers) [Maltose, maltose], for which the “Ratio of carbonyl BSA” value under setting [4] is 0.18 and the “Ratio of carbonyl BSA” value under setting [5] was found to be 0.11.
For the compound `O=C(O)C(O)C(O)C(=O)O` (stereo not drawn) [B, tartaric acid], the “Ratio of carbonyl BSA” value is given as 0.51 under setting [1] and 0.95 under setting [2].
For the compound `O=C(O)CC(O)(CC(=O)O)C(=O)O` [C, citric acid], the “Ratio of carbonyl BSA” value was determined as 0.52 under setting [1] and 0.96 under setting [2].
Take `O=C[C@H](O)[C@@H](O)[C@H](O)[C@H](O)C(=O)O` [F, glucuronic acid]: the “Ratio of carbonyl BSA” value is, setting by setting: under setting [1], 0.16; under setting [2], 1.01.

The values above are taken from US10568827B2, “External dermal agent for reducing yellowish dullness” (Hayashibara Co., Ltd., priority 2015, dated 2020).
